Laboratory results from US20200405696A1, “INHIBITORS OF INDOLEAMINE 2,3-DIOXYGENASE AND/OR TRYPTOPHAN 2,3-DIOXYGENASE” (IDORSIA PHARMACEUTICALS LTD, priority 2018, published 2020).

What was measured:
[1] = target: T1, Recombinant full-length human IDO1 (Homo sapiens, UniProt P14902); assay: IDO1 enzymatic assay (NFK quantified by LCMS); type: biochemical; conditions: 2 nM enzyme, 5 μM L-tryptophan, pH6.5, 30 minutes pre-incubation at RT; mean values when measured multiple times; read-out: hIDO activity (IC50 in nM)
T1 construct: Recombinant full-length human IDO1 with a N-terminal hexahistidine tag; hexahistidine (His6) (N); made in house; host or cells: E. coli
T1 sequence (P14902 whole entry): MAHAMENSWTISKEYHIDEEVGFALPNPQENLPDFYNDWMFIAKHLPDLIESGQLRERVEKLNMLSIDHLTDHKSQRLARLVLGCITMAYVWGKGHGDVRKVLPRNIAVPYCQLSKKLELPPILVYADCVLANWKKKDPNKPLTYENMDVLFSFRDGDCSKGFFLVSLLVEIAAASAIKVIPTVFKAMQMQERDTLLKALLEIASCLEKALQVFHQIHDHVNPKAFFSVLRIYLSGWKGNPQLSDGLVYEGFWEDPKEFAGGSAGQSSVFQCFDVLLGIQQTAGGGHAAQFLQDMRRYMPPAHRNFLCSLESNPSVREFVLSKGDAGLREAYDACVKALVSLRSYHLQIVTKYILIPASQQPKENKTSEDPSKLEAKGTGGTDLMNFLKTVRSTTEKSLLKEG
In short: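 IC50 comes from four-parameter logistic fits of duplicate data, with NFK quantified by LCMS and normalized to L-Trp-(indole-d5). Compound (0.5 nM–10 μM) was preincubated 30 min at RT with 2 nM E. coli-expressed IDO1 before a 30 min reaction with 5 μM tryptophan in pH 6.5 buffer containing ascorbate and methylene blue.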

[2] = target: T2, Recombinant human TDO comprising amino acids 19-407 (Homo sapiens, UniProt P48775); assay: TDO2 enzymatic assay (NFK quantified by LCMS); type: biochemical; conditions: 15 nM enzyme, 200 μM L-tryptophan, pH7, 30 minutes pre-incubation at RT; mean values when measured multiple times; read-out: hTDO activity (IC50 in nM)
T2 construct: Recombinant human TDO comprising amino acids 19-407 with a N-terminal hexahistidine tag; hexahistidine (His6) (N); made in house; host or cells: E. coli
T2 sequence (P48775 19-406 limits assumed): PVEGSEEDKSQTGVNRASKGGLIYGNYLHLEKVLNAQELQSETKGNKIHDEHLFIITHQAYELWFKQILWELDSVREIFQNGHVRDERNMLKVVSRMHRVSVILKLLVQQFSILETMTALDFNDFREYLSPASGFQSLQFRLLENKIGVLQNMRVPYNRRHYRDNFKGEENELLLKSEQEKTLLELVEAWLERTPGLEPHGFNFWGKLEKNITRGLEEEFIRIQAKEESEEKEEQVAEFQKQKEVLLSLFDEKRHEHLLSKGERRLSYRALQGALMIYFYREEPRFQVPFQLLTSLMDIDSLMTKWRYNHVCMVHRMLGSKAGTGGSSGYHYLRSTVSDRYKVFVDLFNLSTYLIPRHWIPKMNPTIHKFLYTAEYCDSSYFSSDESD
In short: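 NFK formed over 30 min at RT from 200 μM L-tryptophan was measured by LCMS, normalized to d5-tryptophan, after compound (0.5 nM–10 μM, duplicates, 0.6% DMSO) was preincubated 30 min with 15 nM recombinant His-tagged TDO 19-407 in phosphate buffer pH 7. IC50 from four-parameter logistic fit; repeats averaged.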

COc1ccc(-n2cc(C(O)c3c(C4(F)CC4)sc4cncn34)nn2)cc1 (racemic) [Example 92, rac-[2-(1-Fluoro-cyclopropyl)-imidazo[5,1-b]thiazol-3-yl]-[1-(4-methoxy-phenyl)-1H-[1,2,3]triazol-4-yl]-methanol]
IC50 [1]: 32.7 nM
IC50 [2]: > 10200 nM

CCc1cc(-n2cc(C(O)c3c(C4CC4)sc4cncn34)nn2)ccc1O (racemic) [Example 232, rac-4-{4-[(2-Cyclopropyl-imidazo[5,1-b]thiazol-3-yl)-hydroxy-methyl]-[1,2,3]triazol-1-yl}-2-ethyl-phenol]
IC50 [1]: 40.1 nM
IC50 [2]: > 10200 nM

CCc1sc2cncn2c1C(O)c1cn(-c2ccc(C(=O)N(C)C)cc2)nn1 (racemic) [Example 114, rac-4-{4-[(2-Ethyl-imidazo[5,1-b]thiazol-3-yl)-hydroxy-methyl]-[1,2,3]triazol-1-yl}-N,N-dimethyl-benzamide]
IC50 [1]: 108 nM
IC50 [2]: > 10200 nM

CCOc1ccc(-n2nnc(C(O)c3c(C4CC4)sc4cncn34)c2C)cc1Cl (racemic) [Example 296, rac-[1-(3-Chloro-4-ethoxy-phenyl)-5-methyl-1H-[1,2,3]triazol-4-yl]-(2-cyclopropyl-imidazo[5,1-b]thiazol-3-yl)-methanol]
IC50 [1]: 14.1 nM
IC50 [2]: > 10200 nM

N#Cc1ccccc1-c1ccc(C(O)c2c(C3CC3)sc3cncn23)s1 (racemic) [Example 172, rac-2-{5-[(2-Cyclopropyl-imidazo[5,1-b]thiazol-3-yl)-hydroxy-methyl]-thiophen-2-yl}-benzonitrile]
IC50 [1]: 272 nM
IC50 [2]: 4080 nM

COc1cccc(-n2cc(C(O)c3c(C4CC4)sc4cncn34)nn2)c1 (racemic) [Example 8, rac-(2-Cyclopropyl-imidazo[5,1-b]thiazol-3-yl)-[1-(3-methoxy-phenyl)-1H-[1,2,3]triazol-4-yl]-methanol]
IC50 [1]: 35.5 nM
IC50 [2]: > 10200 nM

OC(c1cn(-c2cccc3[nH]ccc23)nn1)c1c(C2CC2)sc2cncn12 (racemic) [Example 20, rac-(2-Cyclopropyl-imidazo[5,1-b]thiazol-3-yl)-[1-(1H-indol-4-yl)-1H-[1,2,3]triazol-4-yl]-methanol]
IC50 [1]: 21.3 nM
IC50 [2]: > 10200 nM

CCNC(=O)c1ccc(-n2cc(C(O)c3c(C4CC4)sc4cncn34)nn2)cc1 (racemic) [Example 107, rac-4-{4-[(2-Cyclopropyl-imidazo[5,1-b]thiazol-3-yl)-hydroxy-methyl]-[1,2,3]triazol-1-yl}-N-ethyl-benzamide]
IC50 [1]: 16.6 nM
IC50 [2]: > 10200 nM

CCc1sc2cncn2c1C(O)c1cn(-c2ccc(S(=O)(=O)N(C)C)cc2)nn1 (racemic) [Example 241, rac-4-{4-[(2-Ethyl-imidazo[5,1-b]thiazol-3-yl)-hydroxy-methyl]-[1,2,3]triazol-1-yl}-N,N-dimethyl-benzenesulfonamide]
IC50 [1]: 66 nM
IC50 [2]: > 10200 nM

OC(c1cn(-c2ccc(OCC(F)(F)F)nc2)nn1)c1c(C2CC2)sc2cncn12 (racemic) [Example 78, rac-(2-Cyclopropyl-imidazo[5,1-b]thiazol-3-yl)-{1-[6-(2,2,2-trifluoro-ethoxy)-pyridin-3-yl]-1H-[1,2,3]triazol-4-yl}-methanol]
IC50 [1]: 17.4 nM
IC50 [2]: > 10200 nM

CC(C)(O)CCOc1ccc(-n2cc([C@H](O)c3c(C4CC4)sc4cncn34)nn2)cc1 [Example 140a, 4-(4-{4-[(R)-(2-Cyclopropyl-imidazo[5,1-b]thiazol-3-yl)-hydroxy-methyl]-[1,2,3]triazol-1-yl}-phenoxy)-2-methyl-butan-2-ol]
IC50 [1]: 7.31 nM
IC50 [2]: > 10200 nM

OC(c1cn(-c2ccc(OCc3ccccc3)c(F)c2)nn1)c1c([C@@H]2C[C@H]2F)sc2cncn12 (relative stereo) [Example 322, [1-(4-Benzyloxy-3-fluoro-phenyl)-1H-[1,2,3]triazol-4-yl]-[2-(trans-2-fluoro-cyclopropyl)-imidazo[5,1-b]thiazol-3-yl]-methanol]
IC50 [1]: 16.2 nM
IC50 [2]: > 10200 nM

COC(=O)Nc1ccc(-n2cc(C(O)c3c(C4CC4)sc4cncn34)nn2)cc1 (racemic) [Example 36, rac-(4-{4-[(2-Cyclopropyl-imidazo[5,1-b]thiazol-3-yl)-hydroxy-methyl]-[1,2,3]triazol-1-yl}-phenyl)-carbamic Acid Methyl Ester]
IC50 [1]: 11.1 nM
IC50 [2]: 8520 nM

CCc1sc2cncn2c1C(O)c1cn(-c2ccc(C(N)=O)cc2)nn1 (racemic) [Example 116, rac-4-{4-[(2-Ethyl-imidazo[5,1-b]thiazol-3-yl)-hydroxy-methyl]-[1,2,3]triazol-1-yl}-benzamide]
IC50 [1]: 12.3 nM
IC50 [2]: 5210 nM

COc1ccc(-n2nnc(C(O)c3c(C4CC4)sc4cncn34)c2C(C)C)cc1 (racemic) [Example 280, rac-(2-Cyclopropyl-imidazo[5,1-b]thiazol-3-yl)-[5-isopropyl-1-(4-methoxy-phenyl)-1H-[1,2,3]triazol-4-yl]-methanol]
IC50 [1]: 53.2 nM
IC50 [2]: > 10200 nM

Oc1ccc(-n2cc(C(O)c3c(C4CC4)sc4cncn34)nn2)c(Cl)c1 (racemic) [Example 212, rac-3-Chloro-4-{4-[(2-cyclopropyl-imidazo[5,1-b]thiazol-3-yl)-hydroxy-methyl]-[1,2,3]triazol-1-yl}-phenol]
IC50 [1]: 10.5 nM
IC50 [2]: 6190 nM

CC(C)(O)CCOc1ccc(-n2cc(C(O)c3c(C(C)(F)F)sc4cncn34)nn2)cc1Cl (racemic) [Example 307, rac-4-[2-Chloro-4-(4-{[2-(1,1-difluoro-ethyl)-imidazo[5,1-b]thiazol-3-yl]-hydroxy-methyl}-[1,2,3]triazol-1-yl)-phenoxy]-2-methyl-butan-2-ol]
IC50 [1]: 13.9 nM
IC50 [2]: > 10200 nM

COc1ccc(-n2cc(C(O)c3c(C=C(C)C)sc4cncn34)nn2)cc1 (racemic) [Example 262, rac-[1-(4-Methoxy-phenyl)-1H-[1,2,3]triazol-4-yl]-[2-(2-methyl-propenyl)-imidazo[5,1-b]thiazol-3-yl]-methanol]
IC50 [1]: 83.2 nM
IC50 [2]: > 10200 nM

Oc1ccc(-n2cc(C(O)c3c(C4CC4)sc4cncn34)nn2)cc1C(F)(F)F (racemic) [Example 209, rac-4-{4-[(2-Cyclopropyl-imidazo[5,1-b]thiazol-3-yl)-hydroxy-methyl]-[1,2,3]triazol-1-yl}-2-trifluoromethyl-phenol]
IC50 [1]: 22.1 nM
IC50 [2]: > 10200 nM

OC(c1ccc(-c2cccc(C(F)(F)F)c2)s1)c1c(C2CC2)sc2cncn12 (racemic) [Example 165, rac-(2-Cyclopropyl-imidazo[5,1-b]thiazol-3-yl)-[5-(3-trifluoromethyl-phenyl)-thiophen-2-yl]-methanol]
IC50 [1]: 716 nM
IC50 [2]: > 10200 nM

COc1ccc(-n2cc(C(O)c3c(C4CC4)sc4cncn34)nn2)cn1 (racemic) [Example 69, rac-(2-Cyclopropyl-imidazo[5,1-b]thiazol-3-yl)-[1-(6-methoxy-pyridin-3-yl)-1H-[1,2,3]triazol-4-yl]-methanol]
IC50 [1]: 22.7 nM
IC50 [2]: > 10200 nM

OC(c1cn(-c2cccc3cnccc23)nn1)c1c(C2CC2)sc2cncn12 (racemic) [Example 23, rac-(2-Cyclopropyl-imidazo[5,1-b]thiazol-3-yl)-(1-isoquinolin-5-yl-1H-[1,2,3]triazol-4-yl)-methanol]
IC50 [1]: 24 nM
IC50 [2]: > 10200 nM

Oc1ccc(-n2cc(C(O)c3c(C4CC4)sc4cncn34)nn2)cc1F (racemic) [Example 150, rac-4-{4-[(2-Cyclopropyl-imidazo[5,1-b]thiazol-3-yl)-hydroxy-methyl]-[1,2,3]triazol-1-yl}-2-fluoro-phenol]
IC50 [1]: 4.83 nM
IC50 [2]: 9290 nM

N#Cc1cccc(-n2cc(C(O)c3c(C4CC4)sc4cncn34)nn2)c1 (racemic) [Example 18, rac-3-{4-[(2-Cyclopropyl-imidazo[5,1-b]thiazol-3-yl)-hydroxy-methyl]-[1,2,3]triazol-1-yl}-benzonitrile]
IC50 [1]: 9.32 nM
IC50 [2]: > 10200 nM

Oc1cccc(-n2cc(C(O)c3c(C4CC4)sc4cncn34)nn2)c1 (racemic) [Example 215, rac-3-{4-[(2-Cyclopropyl-imidazo[5,1-b]thiazol-3-yl)-hydroxy-methyl]-[1,2,3]triazol-1-yl}-phenol]
IC50 [1]: 27.6 nM
IC50 [2]: > 10200 nM

OC(c1cn(-c2nccc(Br)c2Cl)nn1)c1c(C2CC2)sc2cncn12 (racemic) [Example 200, rac-[1-(4-Bromo-3-chloro-pyridin-2-yl)-1H-[1,2,3]triazol-4-yl]-(2-cyclopropyl-imidazo[5,1-b]thiazol-3-yl)-methanol]
IC50 [1]: 55.4 nM
IC50 [2]: > 10200 nM

CCc1sc2cncn2c1C(O)c1cn(-c2ccc(NC(=O)C(C)C)cc2)nn1 (racemic) [Example 127, rac-N-(4-{4-[(2-Ethyl-imidazo[5,1-b]thiazol-3-yl)-hydroxy-methyl]-[1,2,3]triazol-1-yl}-phenyl)-isobutyramide]
IC50 [1]: 8.21 nM
IC50 [2]: 7750 nM

CCc1sc2cncn2c1C(O)c1cn(-c2ccc(C(=O)NC)cc2)nn1 (racemic) [Example 111, rac-4-{4-[(2-Ethyl-imidazo[5,1-b]thiazol-3-yl)-hydroxy-methyl]-[1,2,3]triazol-1-yl}-N-methyl-benzamide]
IC50 [1]: 28.8 nM
IC50 [2]: > 10200 nM
